Measurements taken from patent US20060040884A1, “Antisense oligonucleotides directed to genes regulated by trapoxin-induced HDAC inhibition” (priority 2001, published 2006).
Where “and” joins values, the source holds several entries; their conditions need not be identical. Equal entries are not always repeated. Marks after values point to notes of the source that are not given here. Square brackets hold non-standard residues; d marks the D form. Peptide text beside a SMILES is read from it. ξ: configuration not given here. Aoe(9ξ) = N[C@@H](CCCCCC(=O)C1CO1)C(=O)O; dPip = O=C(O)[C@H]1CCCCN1

Tested on: H1299 cells
Assay: Microarray expression profiling of TPX- vs DMSO-treated H1299 cells (Affymetrix HU6800 and Incyte UniGem V arrays)
Format: cell-based, human
Details: 30 nM vs DMSO
Description: Cell Culture and Drug Treatments. […] H1299 cells at 60 to 80% confluence are treated with 30 nM TPX dissolved in dimethyl sulphoxide for a final concentration of 0.1% Me2SO in cell culture medium or 0.1% Me2SO for 0, 6, 12, and 18 h.
Incyte cDNA arrays. H1299 cells are treated with 30 nM TPX dissolved in Me2SO or Me2SO for 0, 6, 12 and 18 h. Final Me2SO concentrations were 0.1% in cell culture medium. Total RNA is extracted using TRIZOL reagent (Life Technologies, Rockville, Md.) and purified using RNAeasy reagents (Qiagen, Valencia Calif.). Poly (A)^+ RNA (mRNA) is prepared from total RNA using Oligotex columns (Qiagen, Valencia, Calif.) and the procedure is repeated twice to minimize contamination with ribosomal RNA. The mRNA concentrations are determined using RiboGreen RNA Quantitation kit (Molecular Probes, Eugene, Oreg.) and equal amounts of mRNA from each sample is used in labeling reactions that are performed by Synteni Division of Incyte Genomics, Inc. (Palo Alto, Calif.). Complementary DNAs are prepared by […] and labeled with Cy3-deoxyuridine triphosphate (Cy3) or Cy5-deoxyuridine triphosphate (Cy5) fluorescent nucleotides. cDNA samples from cells that are treated with Me2SO are labeled with Cy3 and the TPX-treated samples are labeled with Cy5. Replicates were labeled with reversed fluorescent labels to accommodate biases attributable to labeling. The Cy3 and Cy5 samples from each time point are combined and hybridized to UniGem […] arrays (Iyer, V. R., et al., (1999) Science 283, 83-87). This array contains cDNAs that represent approximately 7000 human genes.
Affymetrix oligonucleotide arrays. Total RNA and Poly (A)^+ RNA is isolated from TPX or Me2SO-treated H1299 cells essentially as it was for Incyte cDNA arrays. Total RNA is isolated from p21^waf1-10 cells that are grown in the presence or in the absence of tetracycline for 6, 12 and 48 h. 1st strand cDNA synthesis is performed using Superscript Choice System (Life Technologies) and a T7prFB-t30 primer, 5′-AAACGACGGCACA […]-t30-3′ (SEQ ID NO 1). Biotinylated complementary […] is made using the T7 Megascript system (Ambion, Austin, Tex.), substituting NTP labeling-mix containing biotinylated CTP and UTP. The labeled, purified cDNA is fragmented into <50 bp pieces at 95° C. in MgCl2 buffer to-increase the efficiency of hybridization to 20-mer oligos on the arrays. These labeled fragments are hybridized to HU6800 arrays (Affymetrix, Santa Clara, Calif.) as described previously (Lockhart, D. J., et al., (1996) Nat. Biotechnol. 14, 1675-1680; Alon, U. et al., (1999) Proc. Natl. Acad. Sci. U.S.A. 96, 6745-6750). This array represents approximately 7000 human genes. Briefly, samples are hybridized for 16 h at 45° C. with constant rotation at 60 rpm. The arrays are washed and stained using an Affymetrix fluidics station. The stain included streptavidin-phycoerythrin (10 μg/ml; Molecular Probes, Eugene, Oreg.) and biotinylated goat anti-streptavidin (3 μg/ml; Vector Laboratories, Burlingame, Calif.).
Imaging and Data Analysis. Affymetrix arrays are scanned with a HP argon-ion laser confocal microscope, with a 488 nm […] and detection at 570 nm. Affymetrix fold changes are calculated using GeneChip 3.3 software (Affymetrix). Incyte Pharmaceutical Inc. uses a laser confocal microscope to determine the fluorescence intensities from Incyte cDNA arrays. The fluorescent images (Cy3 and Cy5) from the Incyte cDNA arrays are normalized to total fluorescence from each channel for all genes for labeling efficiency differences and considered the normalized data is used for calculation of the gene expression ratios.

O=C(CCCCC[C@@H]1NC(=O)[C@H]2CCCCN2C(=O)[C@H](Cc2ccccc2)NC(=O)[C@H](Cc2ccccc2)NC1=O)C1CO1 (stereo partly drawn) [TPX, Trapoxin A] (cyclo(FF[dPip][Aoe(9ξ)]))
Fold change, D85429 Hsp 40 (12 h): 4.8^8 fold and 5.3^8 fold
Fold change, J03909 γ-IFN-inducible, IP-30 (12 h): 4.7^7 fold and 5.2^8 fold
Fold change, L03840 Fibroblast growth factor receptor (12 h): 3.2* fold and 4.9^1 fold
Fold change, L32976 Mixed lineage kinase-3 (12 h): −2.4* fold
Fold change, M12174 RhoB (12 h): 5.2^8 fold and 4.5^8 fold
Fold change, M16938 Homeobox C8 (12 h): NC (<2 fold change in expression level (NC))
Fold change, M55153 Transglutaminase 2 (12 h): NC (<2 fold change in expression level (NC))
Fold change, M59828 Hsp 70 (12 h): NC (<2 fold change in expression level (NC))
Fold change, M76125 Tyrosine kinase receptor (TKR) axl (12 h): NC (<2 fold change in expression level (NC))
Fold change, M80244 Human E16 (12 h): NC (<2 fold change in expression level (NC))
Fold change, M86406 Actinin (12 h): 2.1 fold and 2.4 fold
Fold change, NM006603 Stromal antigen 2 (12 h): NC (<2 fold change in expression level (NC))
Fold change, U03057 Actin-bundling protein (12 h): 2.4^7 fold and 2.0^7 fold
Fold change, U09578 MAKAP kinase (3 pk) (12 h): NC (<2 fold change in expression level (NC))
Fold change, U09579 p21waf1 (1st line) (12 h): 10.5^8 fold and 7.0^8 fold
Fold change, U09579 p21waf1 (2nd line) (12 h): 3.4 fold and 3.6 fold
Fold change, U09937 Upa receptor (UpaR) (1st line) (12 h): NC (<2 fold change in expression level (NC))
Fold change, U14750 Connective tissue growth factor (12 h): 5.6 fold and 3.5 fold
Fold change, U15782 Cleavage stimulation factor 3 (12 h): NC (<2 fold change in expression level (NC))
Fold change, U25804 Caspase-4 (12 h): NC (<2 fold change in expression level (NC))
Fold change, U30827 Srp40 (12 h): NC (<2 fold change in expression level (NC))
Fold change, U31875 Hep27 (12 h): 11.2^8 fold and 12.3^8 fold
Fold change, U32519 GAP SH3 binding protein (12 h): 8.3^8 fold and 4.3^3 fold
Fold change, U48795 Cathelicidin antimicrobial peptide (12 h): 8.5 fold
Fold change, U56833 VBP-1 (12 h): NC (<2 fold change in expression level (NC))
Fold change, U77413 O-linked-N-acetylglucosamine transferase (12 h): NC (<2 fold change in expression level (NC))
Fold change, U84214 Defender against cell death 1 (12 h): 2.5 fold and 2.0 fold
Fold change, X03473 Histone H1 (0) [Chromatin remodeling] (12 h): 12.0^8 fold and 11.9^8 fold
Fold change, X03473 Histone H1 (0) [Differentiation] (12 h): 12.0^8 fold and 11.9^8 fold
Fold change, X04429 Plasminogen activator inhibitor 1 (12 h): NC (<2 fold change in expression level (NC))
Fold change, X16396 NAD-dependent methylene teterahydrofolate dehydrogenase-methylenyltetrahydrofolate cyclohydrolase (12 h): NC (<2 fold change in expression level (NC))
Fold change, X37547 Inhibitor of apoptisis homolog C (12 h): NC (<2 fold change in expression level (NC))
Fold change, X53586 Integrin α-6 (12 h): NC (<2 fold change in expression level (NC))
Fold change, X55740 5′-nucleotidase (12 h): NC (<2 fold change in expression level (NC))
Fold change, X66029 TKR axl (12 h): NC (<2 fold change in expression level (NC))
Fold change, X78687 G9 sialidase (12 h): 4.3^8 fold and 4.5^8 fold
Fold change, A1581499 Apoptosis inhibitor 2 (18 h): NC (<2 fold change in expression level (NC))
Fold change, AB011146 KIAA0574, similar to an RNA binding protein (18 h): NC (<2 fold change in expression level (NC))
Fold change, AF012086 RAN-binding protein 2-like (18 h): NC (<2 fold change in expression level (NC))
Fold change, AF052578 RAN [Small GTP-ases] (18 h): 2.5 fold and 3.3 fold
Fold change, AF109161 p35srj [Stress] (18 h): 3.4 fold and 3.3 fold
Fold change, AF109161 p35srj [Transformation and TKRs] (18 h): 3.4 fold and 3.3 fold
Fold change, AL047358 Insulin-induced gene 1 (18 h): 2.0 fold and 2.9 fold
Fold change, AL047358 Spermidine/spermine N1-acetyltransferase (18 h): 2.3 fold and 3.4 fold
Fold change, D31764 Eph1B-like tyrosine kinase receptor (18 h): NC (<2 fold change in expression level (NC))
Fold change, D50525 TI-227H (18 h): NC (<2 fold change in expression level (NC))
Fold change, D85429 Hsp 40 (18 h): 17.1^8 fold and 15.6^8 fold
Fold change, J03909 γ-IFN-inducible, IP-30 (18 h): 17.1^8 fold and 15.6^8 fold
Fold change, L03840 Fibroblast growth factor receptor (18 h): 3.7 fold and 4.4 fold
Fold change, M12174 RhoB (18 h): 6.2^8 fold and 6.1^8 fold
Fold change, M55153 Transglutaminase 2 (18 h): 2.1 fold and 2.6 fold
Fold change, M58286 TNF Receptor (18 h): NC (<2 fold change in expression level (NC))
Fold change, M59828 Hsp 70 (18 h): NC (<2 fold change in expression level (NC))
Fold change, M80899 AHNAK nucleoprotein/desmoykin (18 h): NC (<2 fold change in expression level (NC))
Fold change, M86406 Actinin (18 h): NC (<2 fold change in expression level (NC))
Fold change, U03057 Actin-bundling protein (18 h): NC (<2 fold change in expression level (NC))
Fold change, U09579 p21waf1 (1st line) (18 h): 3.8* fold and 4.0* fold
Fold change, U09579 p21waf1 (2nd line) (18 h): 2.7 fold and 3.1 fold
Fold change, U14750 Connective tissue growth factor (18 h): 3.6 fold and 4.5 fold
Fold change, U19261 Epstein-Barr-induced LMP1 (18 h): NC (<2 fold change in expression level (NC))
Fold change, U28749 High mobility group phosphoprotein I-C (HMGI-C) (1st line) (18 h): NC (<2 fold change in expression level (NC))
Fold change, U30827 Srp40 (18 h): NC (<2 fold change in expression level (NC))
Fold change, U31875 Hep27 (18 h): 7.1^8 fold and 8.3^8 fold
Fold change, U32519 GAP SH3 binding protein (18 h): 4.6^8 fold and 4.2^8 fold
Fold change, U48795 Cathelicidin antimicrobial peptide (18 h): NC (<2 fold change in expression level (NC))
Fold change, U68019 hMAD3 (18 h): NC (<2 fold change in expression level (NC))
Fold change, U79285 Clone 23828 (18 h): NC (<2 fold change in expression level (NC))
Fold change, U84214 Defender against cell death 1 (18 h): NC (<2 fold change in expression level (NC))
Fold change, X03473 Histone H1 (0) [Chromatin remodeling] (18 h): 3.4* fold and 3.6* fold
Fold change, X03473 Histone H1 (0) [Differentiation] (18 h): 3.4* fold and 3.6* fold
Fold change, X37546 Inhibitor of apoptisis homolog B (18 h): NC (<2 fold change in expression level (NC))
Fold change, X78687 G9 sialidase (18 h): 3.3^8 fold and 2.6^8 fold
